The target in experiment [1] is T1, Short transient receptor potential channel 4 (Mus musculus, UniProt Q9QUQ5).
T1 sequence (Q9QUQ5 whole entry): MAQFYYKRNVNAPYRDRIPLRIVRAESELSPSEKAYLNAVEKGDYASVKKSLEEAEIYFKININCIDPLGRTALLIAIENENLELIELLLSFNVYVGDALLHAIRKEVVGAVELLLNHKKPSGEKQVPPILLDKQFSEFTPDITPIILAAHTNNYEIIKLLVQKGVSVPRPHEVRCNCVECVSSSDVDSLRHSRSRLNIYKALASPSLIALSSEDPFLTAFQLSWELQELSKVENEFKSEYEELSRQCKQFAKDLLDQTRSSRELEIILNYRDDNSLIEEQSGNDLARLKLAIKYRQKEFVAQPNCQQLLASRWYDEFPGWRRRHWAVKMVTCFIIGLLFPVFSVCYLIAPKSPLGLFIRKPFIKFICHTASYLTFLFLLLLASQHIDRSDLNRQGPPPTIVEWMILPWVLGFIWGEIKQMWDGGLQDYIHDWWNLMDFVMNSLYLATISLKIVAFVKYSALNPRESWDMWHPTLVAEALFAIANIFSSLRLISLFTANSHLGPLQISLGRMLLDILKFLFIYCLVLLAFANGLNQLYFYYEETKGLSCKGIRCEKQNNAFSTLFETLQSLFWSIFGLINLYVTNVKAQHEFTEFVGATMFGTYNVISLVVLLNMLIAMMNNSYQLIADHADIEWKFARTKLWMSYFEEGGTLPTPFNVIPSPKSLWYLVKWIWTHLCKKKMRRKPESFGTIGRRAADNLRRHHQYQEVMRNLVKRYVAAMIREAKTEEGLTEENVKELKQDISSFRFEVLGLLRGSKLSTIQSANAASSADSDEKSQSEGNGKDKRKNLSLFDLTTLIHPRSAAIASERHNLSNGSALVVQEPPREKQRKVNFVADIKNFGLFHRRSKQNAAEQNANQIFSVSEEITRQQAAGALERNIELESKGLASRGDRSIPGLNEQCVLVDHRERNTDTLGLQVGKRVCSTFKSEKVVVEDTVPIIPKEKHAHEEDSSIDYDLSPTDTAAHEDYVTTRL
The experiment in a line: mouse TRPC4 channel inhibitors, dose response, cell-based, HEK293 TRPC4/mu-opioid, Fluo-4 calcium (AID 434942).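 Note: potency of inhibitors blocking the TRPC4 calcium response.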 In kind it is functional.

In experiment [2] the target is G-protein coupled receptor 35 (Homo sapiens, UniProt Q9HC97). The experiment can be described thus: GPR35 antagonists blocking zaprinast-driven arrestin recruitment, primary screen, imaging, U2OS, beta-arrestin-GFP, zaprinast agonist (AID 2058).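 Note: antagonist potency meaning inhibition of agonist-induced arrestin redistribution.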 In kind it is functional. In general terms: Recruitment of arrestin is a read-out of receptor activation apart from second messengers.
G-protein coupled receptor 35, sequence (Q9HC97 whole entry): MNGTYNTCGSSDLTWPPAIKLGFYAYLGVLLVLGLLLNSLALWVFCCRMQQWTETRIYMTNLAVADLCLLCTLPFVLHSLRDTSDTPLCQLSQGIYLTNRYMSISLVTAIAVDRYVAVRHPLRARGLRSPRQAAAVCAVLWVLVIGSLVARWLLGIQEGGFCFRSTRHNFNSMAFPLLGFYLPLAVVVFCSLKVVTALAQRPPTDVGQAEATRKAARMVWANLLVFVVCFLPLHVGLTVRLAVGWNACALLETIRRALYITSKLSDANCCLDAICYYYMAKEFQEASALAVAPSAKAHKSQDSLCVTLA

Experiment [3] deals with T2, Corticotropin-releasing factor receptor 2/Corticotropin-releasing factor-binding protein (Homo sapiens, UniProt P24387+Q13324).
T2 sequence (Q13324 whole entry): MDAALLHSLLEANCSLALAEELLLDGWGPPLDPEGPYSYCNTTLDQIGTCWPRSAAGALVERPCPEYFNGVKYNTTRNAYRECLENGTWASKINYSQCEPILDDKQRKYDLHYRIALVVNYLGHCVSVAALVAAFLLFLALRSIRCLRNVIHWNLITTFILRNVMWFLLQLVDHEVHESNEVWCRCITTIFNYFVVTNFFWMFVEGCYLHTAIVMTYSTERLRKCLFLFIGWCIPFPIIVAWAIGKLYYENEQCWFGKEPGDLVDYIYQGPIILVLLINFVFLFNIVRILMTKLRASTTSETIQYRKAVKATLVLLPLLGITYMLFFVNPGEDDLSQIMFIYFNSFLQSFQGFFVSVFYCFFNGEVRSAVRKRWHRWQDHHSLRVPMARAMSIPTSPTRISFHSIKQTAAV
T2 sequence (P24387 whole entry): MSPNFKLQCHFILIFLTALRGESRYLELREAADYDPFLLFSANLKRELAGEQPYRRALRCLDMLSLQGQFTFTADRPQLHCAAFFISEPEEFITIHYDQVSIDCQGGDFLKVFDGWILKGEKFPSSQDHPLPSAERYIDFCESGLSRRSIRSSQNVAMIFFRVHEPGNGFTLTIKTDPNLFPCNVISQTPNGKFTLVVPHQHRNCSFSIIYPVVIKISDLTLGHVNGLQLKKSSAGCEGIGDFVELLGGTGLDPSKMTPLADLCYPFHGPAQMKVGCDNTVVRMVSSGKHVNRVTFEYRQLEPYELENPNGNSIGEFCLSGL
The experiment can be described thus: activators of CRF receptor 2 with binding protein – uHTS hits, confirmation (AID 602473). Type of experiment: functional. Conditions: read-out: EC50_Mean.

Experiment [4] has as its target T1, Short transient receptor potential channel 4. The experiment in a line: mouse TRPC4 channel activators, dose response, cell-based, HEK293 TRPC4/mu-opioid, Fluo-4 calcium (AID 434937). Type of experiment: functional.
Experiment [5] has as its target X-box-binding protein 1 (Homo sapiens, UniProt P17861). Type of experiment: functional, Cricetulus griseus.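 Note: confirmatory dose-response counter-screen serving a CHOP assay.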
Experiment [6] concerns the target Melanin-concentrating hormone receptor 1 (Homo sapiens, UniProt Q99705). The experiment in a line: Fluorescence-based counterscreen for antagonists of the G-protein coupled receptor 7 (GPR7): cell-based high throughput dose response assay to identify antagonists of the melanin-concentrating hormone receptor 1 (MCHR1). Type of experiment: functional.
Experiment [7] addresses T3, Neuropeptides B/W receptor type 1 (Homo sapiens, UniProt P48145).
T3 sequence (P48145 whole entry): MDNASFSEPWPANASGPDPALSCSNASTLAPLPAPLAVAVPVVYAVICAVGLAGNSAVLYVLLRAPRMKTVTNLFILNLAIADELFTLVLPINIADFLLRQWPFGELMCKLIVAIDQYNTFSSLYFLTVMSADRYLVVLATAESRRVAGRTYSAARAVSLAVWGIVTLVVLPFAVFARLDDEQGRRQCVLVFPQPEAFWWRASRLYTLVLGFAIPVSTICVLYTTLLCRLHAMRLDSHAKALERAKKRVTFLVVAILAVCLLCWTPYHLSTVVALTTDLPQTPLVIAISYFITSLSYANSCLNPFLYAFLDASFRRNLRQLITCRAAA
The experiment can be described thus: Fluorescence-based dose response cell-based high throughput screening assay to identify antagonists of the G-protein coupled receptor 7 (GPR7). [Related pubchem assays: 1952 (Screening assay (GPR7 antagonists).), 1880 (Summary AID.)]. Type of experiment: functional.

In experiment [8] the target is T4, Fatty acid synthase (Homo sapiens, UniProt P49327). The experiment in a line: FAS thioesterase domain inhibitors, dose response, biochemical, kinetic fluorescence intensity (AID 624326).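 Note: rate of fluorescence rise from hydrolysis of a fluorogenic O-methyl fluorescein ester substrate.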 In kind it is functional.
T4 sequence (P49327 whole entry, the tested form may be a part): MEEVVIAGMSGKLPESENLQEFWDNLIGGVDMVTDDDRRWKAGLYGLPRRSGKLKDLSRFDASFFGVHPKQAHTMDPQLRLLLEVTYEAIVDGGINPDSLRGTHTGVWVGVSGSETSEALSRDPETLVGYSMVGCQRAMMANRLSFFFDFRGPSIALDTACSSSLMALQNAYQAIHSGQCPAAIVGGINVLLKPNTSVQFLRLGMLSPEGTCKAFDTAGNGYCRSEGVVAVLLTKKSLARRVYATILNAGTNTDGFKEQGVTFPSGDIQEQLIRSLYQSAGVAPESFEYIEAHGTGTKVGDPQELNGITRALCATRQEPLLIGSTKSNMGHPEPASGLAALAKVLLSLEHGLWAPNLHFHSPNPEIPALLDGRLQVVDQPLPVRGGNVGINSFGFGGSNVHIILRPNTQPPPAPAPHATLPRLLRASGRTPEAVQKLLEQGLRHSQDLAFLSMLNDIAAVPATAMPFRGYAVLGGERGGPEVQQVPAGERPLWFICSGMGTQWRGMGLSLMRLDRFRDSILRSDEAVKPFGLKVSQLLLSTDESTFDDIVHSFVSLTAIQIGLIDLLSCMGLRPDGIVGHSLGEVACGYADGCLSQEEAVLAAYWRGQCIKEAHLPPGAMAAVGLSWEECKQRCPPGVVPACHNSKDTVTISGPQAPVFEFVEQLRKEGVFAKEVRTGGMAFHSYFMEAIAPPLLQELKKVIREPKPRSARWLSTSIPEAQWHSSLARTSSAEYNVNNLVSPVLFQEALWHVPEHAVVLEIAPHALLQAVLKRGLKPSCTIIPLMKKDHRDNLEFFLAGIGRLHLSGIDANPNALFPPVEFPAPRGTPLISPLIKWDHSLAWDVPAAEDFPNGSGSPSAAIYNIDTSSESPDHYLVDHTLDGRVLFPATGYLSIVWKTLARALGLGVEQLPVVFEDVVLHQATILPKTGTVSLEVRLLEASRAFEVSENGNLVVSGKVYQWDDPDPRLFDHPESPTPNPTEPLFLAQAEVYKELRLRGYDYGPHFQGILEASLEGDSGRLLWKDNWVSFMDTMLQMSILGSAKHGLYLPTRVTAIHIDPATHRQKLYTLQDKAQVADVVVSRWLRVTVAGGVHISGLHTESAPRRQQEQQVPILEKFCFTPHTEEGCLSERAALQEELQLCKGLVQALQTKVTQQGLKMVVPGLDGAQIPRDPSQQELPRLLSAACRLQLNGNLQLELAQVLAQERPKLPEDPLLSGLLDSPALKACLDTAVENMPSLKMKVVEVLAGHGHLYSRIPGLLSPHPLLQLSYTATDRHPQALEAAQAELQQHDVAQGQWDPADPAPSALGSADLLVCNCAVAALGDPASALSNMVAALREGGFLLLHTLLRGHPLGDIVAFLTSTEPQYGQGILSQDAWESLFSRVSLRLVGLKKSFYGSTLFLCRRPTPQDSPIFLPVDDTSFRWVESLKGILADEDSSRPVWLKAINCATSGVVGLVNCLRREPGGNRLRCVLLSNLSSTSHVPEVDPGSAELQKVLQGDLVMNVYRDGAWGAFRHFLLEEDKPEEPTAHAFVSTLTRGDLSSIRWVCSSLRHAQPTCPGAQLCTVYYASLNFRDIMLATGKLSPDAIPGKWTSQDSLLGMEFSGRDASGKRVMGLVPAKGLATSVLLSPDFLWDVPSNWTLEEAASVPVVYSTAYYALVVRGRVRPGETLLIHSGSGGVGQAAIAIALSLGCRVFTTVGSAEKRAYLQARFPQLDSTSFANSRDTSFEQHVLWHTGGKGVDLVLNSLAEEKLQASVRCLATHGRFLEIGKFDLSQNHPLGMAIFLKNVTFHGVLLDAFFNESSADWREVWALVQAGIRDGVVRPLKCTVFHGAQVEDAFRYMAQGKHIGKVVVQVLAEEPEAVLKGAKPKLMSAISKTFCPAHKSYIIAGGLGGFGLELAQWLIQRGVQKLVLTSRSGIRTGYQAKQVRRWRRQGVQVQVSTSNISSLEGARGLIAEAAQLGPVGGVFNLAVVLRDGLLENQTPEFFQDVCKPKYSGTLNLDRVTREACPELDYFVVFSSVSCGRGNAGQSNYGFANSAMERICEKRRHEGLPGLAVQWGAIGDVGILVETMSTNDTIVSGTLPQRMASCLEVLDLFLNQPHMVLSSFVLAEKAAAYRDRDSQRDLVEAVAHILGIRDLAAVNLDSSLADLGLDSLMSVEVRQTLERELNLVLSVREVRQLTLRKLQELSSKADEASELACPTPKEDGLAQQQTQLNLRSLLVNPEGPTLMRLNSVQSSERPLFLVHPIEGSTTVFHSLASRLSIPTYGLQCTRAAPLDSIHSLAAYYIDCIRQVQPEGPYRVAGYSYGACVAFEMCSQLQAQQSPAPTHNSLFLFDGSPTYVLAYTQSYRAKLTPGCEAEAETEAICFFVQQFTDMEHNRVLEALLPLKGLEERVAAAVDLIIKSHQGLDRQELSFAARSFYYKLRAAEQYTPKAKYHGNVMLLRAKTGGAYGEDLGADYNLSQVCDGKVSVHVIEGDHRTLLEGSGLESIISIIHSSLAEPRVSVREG
Experiment [9] deals with T4, Fatty acid synthase. The experiment in a line: FAS thioesterase domain inhibitors, dose response, biochemical, endpoint fluorescence intensity, uHTS hits (AID 624327).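 Note: fluorescence from hydrolysis of an O-methyl fluorescein acyl ester substrate by the enzyme.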 In kind it is functional.
Experiment [10] addresses Acyl-homoserine lactone acylase PvdQ (Pseudomonas aeruginosa (strain LESB58), UniProt Q9I194). The experiment can be described thus: P. aeruginosa PvdQ acylase inhibitors, dose response, biochemical, fluorescence, plate reader and imaging, cherry-picks (AID 493231).
For experiment [11], the target named is T5, Heat shock factor protein 1 (Mus musculus, UniProt P38532).
T5 sequence (P38532 whole entry): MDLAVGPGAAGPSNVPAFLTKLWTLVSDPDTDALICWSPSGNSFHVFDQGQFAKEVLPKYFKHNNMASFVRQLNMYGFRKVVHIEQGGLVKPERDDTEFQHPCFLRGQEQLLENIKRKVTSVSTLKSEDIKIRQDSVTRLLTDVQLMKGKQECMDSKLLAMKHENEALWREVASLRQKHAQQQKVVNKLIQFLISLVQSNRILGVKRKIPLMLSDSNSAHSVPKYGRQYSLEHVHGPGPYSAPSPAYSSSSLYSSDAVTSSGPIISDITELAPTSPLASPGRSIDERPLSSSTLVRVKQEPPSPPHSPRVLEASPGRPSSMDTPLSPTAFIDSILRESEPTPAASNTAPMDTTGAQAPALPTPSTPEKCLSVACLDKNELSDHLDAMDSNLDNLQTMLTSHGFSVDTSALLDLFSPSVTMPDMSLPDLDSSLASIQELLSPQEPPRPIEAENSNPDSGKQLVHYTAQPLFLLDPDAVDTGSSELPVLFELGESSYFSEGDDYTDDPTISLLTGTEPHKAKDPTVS
The experiment can be described thus: HSF1 potentiators in luciferase reporter cells, confirmation, cell-based, NIH3T3, luminescence, dose retest (AID 435004).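 Note: stress induced by proteasome inhibitor MG132 added 30 min after compound; luciferase reporter driven by HSF1 response element in NIH3T3 cells; actives raise luminescence as potentiators of the MG132 stress response.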 In kind it is functional. On the technique in general: In a reporter assay the amount or activity of a reporter protein is the signal.

Experiment [12] has as its system Vero. The experiment can be described thus: Vero E6 cell cytotoxicity, SAR follow-up, cytotoxicity control for West Nile virus antiviral project, synthesized analogs (AID 2244). The settings on record: Chlorocebus sabaeus. In kind it is functional.

Activity calls are given as the source filed them. Bounds are passed on as bounds.

Acyl-homoserine lactone acylase PvdQ, sequence (Q9I194 24-193 limits assumed): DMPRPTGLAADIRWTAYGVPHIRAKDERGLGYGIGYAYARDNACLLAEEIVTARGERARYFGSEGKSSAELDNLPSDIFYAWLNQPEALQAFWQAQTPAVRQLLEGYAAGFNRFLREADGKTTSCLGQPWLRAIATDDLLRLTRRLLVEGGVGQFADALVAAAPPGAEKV
Acyl-homoserine lactone acylase PvdQ, sequence (Q9I194 217-762 limits assumed): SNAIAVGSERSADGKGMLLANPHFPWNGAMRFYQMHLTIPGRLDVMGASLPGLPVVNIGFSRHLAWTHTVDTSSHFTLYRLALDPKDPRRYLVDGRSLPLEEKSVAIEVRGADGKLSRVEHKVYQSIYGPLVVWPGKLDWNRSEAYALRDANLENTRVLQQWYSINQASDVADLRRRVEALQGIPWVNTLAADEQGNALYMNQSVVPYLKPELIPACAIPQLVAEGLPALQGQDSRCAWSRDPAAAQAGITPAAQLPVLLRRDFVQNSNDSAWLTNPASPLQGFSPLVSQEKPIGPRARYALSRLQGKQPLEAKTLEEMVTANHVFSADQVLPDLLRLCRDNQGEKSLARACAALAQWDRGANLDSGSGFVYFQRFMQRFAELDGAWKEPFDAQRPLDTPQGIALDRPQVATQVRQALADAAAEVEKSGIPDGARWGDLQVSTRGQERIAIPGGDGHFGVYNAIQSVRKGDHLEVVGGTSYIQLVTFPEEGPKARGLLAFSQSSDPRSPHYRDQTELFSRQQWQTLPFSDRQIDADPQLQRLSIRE
X-box-binding protein 1, sequence (P17861 whole entry): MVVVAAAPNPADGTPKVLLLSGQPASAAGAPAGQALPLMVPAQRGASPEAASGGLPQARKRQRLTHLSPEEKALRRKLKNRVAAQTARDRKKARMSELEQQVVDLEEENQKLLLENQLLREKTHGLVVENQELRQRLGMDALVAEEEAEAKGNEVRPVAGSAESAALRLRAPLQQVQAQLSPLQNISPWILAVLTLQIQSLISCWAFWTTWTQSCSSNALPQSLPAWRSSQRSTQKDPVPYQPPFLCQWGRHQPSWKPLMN
Melanin-concentrating hormone receptor 1, sequence (Q99705 whole entry): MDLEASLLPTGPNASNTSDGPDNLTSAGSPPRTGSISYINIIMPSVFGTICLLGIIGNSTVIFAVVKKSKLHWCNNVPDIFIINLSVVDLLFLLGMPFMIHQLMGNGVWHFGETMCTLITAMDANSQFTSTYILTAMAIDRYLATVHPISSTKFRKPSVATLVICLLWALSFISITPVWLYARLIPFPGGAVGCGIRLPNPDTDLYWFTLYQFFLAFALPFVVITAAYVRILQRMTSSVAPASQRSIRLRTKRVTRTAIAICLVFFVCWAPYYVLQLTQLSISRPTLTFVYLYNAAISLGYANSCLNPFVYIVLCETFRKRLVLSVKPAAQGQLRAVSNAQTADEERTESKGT

Take `CCc1cc(C(c2cccc(OC)c2)N2CCOCC2)c(NC(=O)c2ccccc2)s1` (stereo not given): in experiment [1], the EC50 is 1.88 µM (active).
For the compound `CCCCN1C(=O)NC(=O)/C(=C(O)\C=C\c2c[nH]c3ccccc23)C1=O`, the IC50 in experiment [2] is 3.1 µM (active). In [3], the EC50 is 6.02 µM (active).
Take `Cc1onc(-c2ccccc2)c1C(=O)NNC(=S)NC(=O)/C=C/c1ccccc1`: the EC50 is 5.31 µM (active) in experiment [1], 3.32 µM (active) in [3] and 4.22 µM (active) in [4].
In the case of `CC(C)C(=O)N1CCC(CNC=C2C(=O)N(C3CCCCC3)C(=O)N(C3CCCCC3)C2=O)CC1`, the “Absolute IC50 (XBP1)” value in [5] was found to be 10 µM.
For `O=C(COc1ccc([N+](=O)[O-])cc1)NCCC1=CCCCC1`, the half-inhibitory concentration (IC50) in experiment [6] was 22.2 µM (not active); in [7], > 14.6 µM (not active); in experiment [8], 10.1 µM (active); in experiment [9], 8.16 µM (active).
On to `COC(=O)c1noc(-c2ccc(OC)cc2)n1`, for which, in experiment [10], the AC50 is > 100 µM (inactive).
Regarding `O=C(NC1CCCCCCC1)c1cc([N+](=O)[O-])ccc1Cl`, in experiment [10], the concentration at half-maximal activity (AC50) was 40.8 µM (active). In addition, the IC50 is 7.35 µM (active) in [8] and 9.4 µM (active) in experiment [9].
On to `Clc1ccc(-n2c(SC/C=C/c3ccccc3)nnc2-c2cccnc2)cc1`, for which, in [11], the EC50 is 46.1 µM (active). Further, the IC50 in experiment [6] is 8.43 µM (active); in experiment [7], 16.9 µM (not active).
`COc1ccc(-c2csc(N(CCCN(C)C)C(=O)c3ccccc3F)n2)cc1`: the CC50 in experiment [12] is > 80 µM (active).
On to `Cc1ccc(OCC(=O)N/N=C/c2c[nH]nc2-c2ccc(Cl)c(Cl)c2)cc1`, for which the “Absolute IC50 (XBP1)” value in experiment [5] is 10 µM.

As usually defined, the IC50 is the concentration that gives 50% inhibition. By AC50 is commonly meant the midpoint of the concentration-response curve, whichever way the signal moves. A word on the CC50: it is the concentration that lowers cell viability or growth by half.
